Our source for the inhibition and remaining activity values is article PMC8500670, “A selective WDR5 degrader inhibits acute myeloid leukemia in patient-derived mouse models” (Science translational medicine, 2021).

What all share (test): biochemical
The target of assay [1] is T1, NET (Homo sapiens, UniProt P23975).
T1 construct: gene SLC6A2
Details: GPCR, ion channel and transporter panel, per cent inhibition of binding, mean of four. The protocol: (§1) We next assessed selectivity of MS67 against 22 protein methyltransferases (table S2) and a broad panel of common drug targets including 45 kinases (table S3) and 44 G protein–coupled receptors (GPCR), ion channels, and transporters (table S4). […] We subsequently determined that MS67 had moderate binding affinity (Ki = 1.0 ± 0.8 μM) to Sigma 2 receptor (fig. S10).

The target of assay [2] is T2, 5-HT1A (Homo sapiens, UniProt P08908).
T2 construct: gene HTR1A
On the set-up: GPCR, ion channel and transporter panel, per cent inhibition of binding, mean of four. The protocol:
as §1

For assay [3], the target named is T3, 5-HT2B (Homo sapiens, UniProt P41595).
T3 construct: gene HTR2B
On the set-up: GPCR, ion channel and transporter panel, per cent inhibition of binding, mean of four. How it is done:
as §1

Assay [4] addresses T4, M1 (Homo sapiens, UniProt P11229).
T4 construct: gene CHRM1
Details: GPCR, ion channel and transporter panel, per cent inhibition of binding, mean of four. How it is done:
as §1

Assay [5] has as its target T5, M3 (Homo sapiens, UniProt P20309).
T5 construct: gene CHRM3
Details: GPCR, ion channel and transporter panel, per cent inhibition of binding, mean of four. How it is done:
as §1

Assay [6] has as its target T6, 5-HT5A (Homo sapiens, UniProt P47898).
T6 construct: gene HTR5A
Details: GPCR, ion channel and transporter panel, per cent inhibition of binding, mean of four. The protocol:
as §1

In assay [7] the target is T7, M5 (Homo sapiens, UniProt P08912).
T7 construct: gene CHRM5
Details: GPCR, ion channel and transporter panel, per cent inhibition of binding, mean of four. How it is done:
as §1

In assay [8] the target is T8, Beta1 (Homo sapiens, UniProt P08588).
T8 construct: gene ADRB1
Details: GPCR, ion channel and transporter panel, per cent inhibition of binding, mean of four. The protocol: as §1

Assay [9] addresses T9, 5-HT2A (Homo sapiens, UniProt P28223).
T9 construct: gene HTR2A
Details: GPCR, ion channel and transporter panel, per cent inhibition of binding, mean of four. The protocol: as §1

Assay [10] has as its target T10, Beta2 (Homo sapiens, UniProt P07550).
T10 construct: gene ADRB2
Details: GPCR, ion channel and transporter panel, per cent inhibition of binding, mean of four. The protocol: as §1

Assay [11] addresses T11, Alpha1A (Homo sapiens, UniProt P35348).
T11 construct: gene ADRA1A
Details: GPCR, ion channel and transporter panel, per cent inhibition of binding, mean of four. The protocol: as §1

The target in assay [12] is T12, G9a (Homo sapiens, UniProt Q96KQ7).
T12 construct: gene EHMT2
T12 sequence (Q96KQ7 1-1210): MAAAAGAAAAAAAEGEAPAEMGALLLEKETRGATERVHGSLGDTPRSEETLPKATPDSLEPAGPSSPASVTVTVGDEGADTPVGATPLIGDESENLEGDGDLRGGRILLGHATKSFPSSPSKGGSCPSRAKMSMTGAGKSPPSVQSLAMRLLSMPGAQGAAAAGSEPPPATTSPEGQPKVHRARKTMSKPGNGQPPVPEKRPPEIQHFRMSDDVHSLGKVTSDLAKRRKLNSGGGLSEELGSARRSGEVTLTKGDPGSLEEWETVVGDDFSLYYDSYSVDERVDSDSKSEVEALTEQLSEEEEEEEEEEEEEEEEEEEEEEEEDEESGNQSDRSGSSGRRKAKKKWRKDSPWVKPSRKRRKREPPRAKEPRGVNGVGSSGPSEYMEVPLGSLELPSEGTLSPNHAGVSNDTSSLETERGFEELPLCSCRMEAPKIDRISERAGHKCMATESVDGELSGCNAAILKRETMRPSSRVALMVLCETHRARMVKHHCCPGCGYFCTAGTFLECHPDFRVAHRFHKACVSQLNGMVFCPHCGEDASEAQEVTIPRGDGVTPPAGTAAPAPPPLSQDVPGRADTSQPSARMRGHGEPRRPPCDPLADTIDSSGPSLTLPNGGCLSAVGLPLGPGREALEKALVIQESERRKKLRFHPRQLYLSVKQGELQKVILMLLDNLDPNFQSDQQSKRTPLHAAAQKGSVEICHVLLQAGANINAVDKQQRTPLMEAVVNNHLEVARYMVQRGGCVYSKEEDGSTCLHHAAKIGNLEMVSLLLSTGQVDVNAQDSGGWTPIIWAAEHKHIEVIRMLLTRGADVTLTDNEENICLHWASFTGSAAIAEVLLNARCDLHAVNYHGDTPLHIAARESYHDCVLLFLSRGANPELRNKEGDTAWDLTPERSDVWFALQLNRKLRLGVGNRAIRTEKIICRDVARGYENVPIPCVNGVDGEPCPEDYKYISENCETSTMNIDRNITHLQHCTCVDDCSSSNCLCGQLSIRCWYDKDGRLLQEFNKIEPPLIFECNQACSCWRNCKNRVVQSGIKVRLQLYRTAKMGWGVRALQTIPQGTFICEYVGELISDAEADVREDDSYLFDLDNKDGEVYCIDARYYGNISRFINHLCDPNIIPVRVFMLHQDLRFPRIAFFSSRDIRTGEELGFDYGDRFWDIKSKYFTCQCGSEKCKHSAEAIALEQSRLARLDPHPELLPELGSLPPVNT
On the set-up: protein methyltransferase selectivity panel, enzyme activity relative to DMSO controls, single concentration in duplicate. The conditions noted are these: Substrate:=Histone H3 1-21. How it is done:
as §1

For assay [13], the target named is SUV39H2 (Homo sapiens, UniProt Q9H5I1). On the set-up: protein methyltransferase selectivity panel, enzyme activity relative to DMSO controls, single concentration in duplicate. The conditions noted are these: Substrate:=Histone H3; read-out: Enzyme % Activity (relative to DMSO controls) / MS67 / 10 / Data 1:
How it is done: as §1

Assay [14] deals with PRMT6 (Homo sapiens, UniProt Q96LA8). Details: protein methyltransferase selectivity panel, enzyme activity relative to DMSO controls, single concentration in duplicate. The settings on record: Substrate:=GST-GAR. The protocol:
as §1

Where [15] appears, read: read-out: Enzyme % Activity (relative to DMSO controls) / MS67 / 10 / Data 1:
[16] abbreviates: read-out: Enzyme % Activity (relative to DMSO controls) / MS67 / 10 / Data 2:

Read-outs that look alike come from different tables or passages of the source.

PRMT6, sequence (Q96LA8 whole entry): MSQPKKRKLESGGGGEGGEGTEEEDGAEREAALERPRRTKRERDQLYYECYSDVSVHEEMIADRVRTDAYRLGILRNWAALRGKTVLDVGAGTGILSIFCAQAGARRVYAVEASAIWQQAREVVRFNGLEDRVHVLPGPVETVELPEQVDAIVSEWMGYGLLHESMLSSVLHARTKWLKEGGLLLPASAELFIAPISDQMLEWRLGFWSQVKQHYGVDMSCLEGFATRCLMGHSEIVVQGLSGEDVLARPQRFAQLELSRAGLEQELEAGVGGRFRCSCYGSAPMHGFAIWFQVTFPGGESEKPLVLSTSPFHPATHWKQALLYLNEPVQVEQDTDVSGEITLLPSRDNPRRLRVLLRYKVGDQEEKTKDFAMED
T9 sequence (P28223 whole entry): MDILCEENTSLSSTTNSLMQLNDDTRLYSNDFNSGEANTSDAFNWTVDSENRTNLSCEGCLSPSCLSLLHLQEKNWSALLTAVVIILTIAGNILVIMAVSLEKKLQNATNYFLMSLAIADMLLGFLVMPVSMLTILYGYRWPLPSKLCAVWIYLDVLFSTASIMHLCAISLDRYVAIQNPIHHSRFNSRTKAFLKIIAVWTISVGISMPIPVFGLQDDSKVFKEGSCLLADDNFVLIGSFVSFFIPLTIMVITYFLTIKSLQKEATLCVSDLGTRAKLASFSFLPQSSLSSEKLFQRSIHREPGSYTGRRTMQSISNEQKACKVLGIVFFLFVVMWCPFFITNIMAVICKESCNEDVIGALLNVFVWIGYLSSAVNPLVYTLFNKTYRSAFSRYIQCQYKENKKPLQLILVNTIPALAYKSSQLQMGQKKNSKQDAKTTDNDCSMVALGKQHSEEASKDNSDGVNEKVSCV
SUV39H2, sequence (Q9H5I1 whole entry): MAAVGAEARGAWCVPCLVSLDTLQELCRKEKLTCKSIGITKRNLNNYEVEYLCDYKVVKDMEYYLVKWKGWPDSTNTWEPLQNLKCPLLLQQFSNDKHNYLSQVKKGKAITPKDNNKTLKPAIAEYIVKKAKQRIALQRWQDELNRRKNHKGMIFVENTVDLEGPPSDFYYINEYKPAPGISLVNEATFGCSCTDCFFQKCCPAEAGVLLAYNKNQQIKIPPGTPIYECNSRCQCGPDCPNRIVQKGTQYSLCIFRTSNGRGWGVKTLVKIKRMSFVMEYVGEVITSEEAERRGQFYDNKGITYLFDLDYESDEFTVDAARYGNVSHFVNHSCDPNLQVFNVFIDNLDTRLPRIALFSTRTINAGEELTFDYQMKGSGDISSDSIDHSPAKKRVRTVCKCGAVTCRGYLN
T10 sequence (P07550 whole entry): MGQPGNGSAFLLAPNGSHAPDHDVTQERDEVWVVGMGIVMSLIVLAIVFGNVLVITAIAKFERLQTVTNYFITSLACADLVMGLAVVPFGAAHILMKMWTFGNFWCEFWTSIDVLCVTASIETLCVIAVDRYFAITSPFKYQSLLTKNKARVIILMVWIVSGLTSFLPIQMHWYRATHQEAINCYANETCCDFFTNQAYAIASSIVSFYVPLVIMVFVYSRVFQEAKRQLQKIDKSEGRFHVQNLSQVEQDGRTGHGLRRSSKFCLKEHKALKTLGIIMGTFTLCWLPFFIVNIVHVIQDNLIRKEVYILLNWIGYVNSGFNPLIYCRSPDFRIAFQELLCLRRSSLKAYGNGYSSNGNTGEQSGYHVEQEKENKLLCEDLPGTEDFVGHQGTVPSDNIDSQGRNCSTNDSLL
T11 sequence (P35348 whole entry): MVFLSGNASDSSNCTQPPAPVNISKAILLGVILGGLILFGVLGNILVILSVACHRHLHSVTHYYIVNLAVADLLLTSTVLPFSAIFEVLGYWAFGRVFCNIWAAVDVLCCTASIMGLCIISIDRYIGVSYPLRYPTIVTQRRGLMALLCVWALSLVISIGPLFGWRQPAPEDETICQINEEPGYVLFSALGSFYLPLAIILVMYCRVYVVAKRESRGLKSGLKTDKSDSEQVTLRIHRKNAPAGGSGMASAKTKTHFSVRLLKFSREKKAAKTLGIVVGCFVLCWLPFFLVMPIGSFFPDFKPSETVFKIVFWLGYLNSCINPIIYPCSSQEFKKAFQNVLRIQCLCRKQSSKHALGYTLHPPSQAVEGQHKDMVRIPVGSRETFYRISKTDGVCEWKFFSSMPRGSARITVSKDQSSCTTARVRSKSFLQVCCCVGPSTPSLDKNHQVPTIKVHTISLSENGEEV
T3 sequence (P41595 whole entry): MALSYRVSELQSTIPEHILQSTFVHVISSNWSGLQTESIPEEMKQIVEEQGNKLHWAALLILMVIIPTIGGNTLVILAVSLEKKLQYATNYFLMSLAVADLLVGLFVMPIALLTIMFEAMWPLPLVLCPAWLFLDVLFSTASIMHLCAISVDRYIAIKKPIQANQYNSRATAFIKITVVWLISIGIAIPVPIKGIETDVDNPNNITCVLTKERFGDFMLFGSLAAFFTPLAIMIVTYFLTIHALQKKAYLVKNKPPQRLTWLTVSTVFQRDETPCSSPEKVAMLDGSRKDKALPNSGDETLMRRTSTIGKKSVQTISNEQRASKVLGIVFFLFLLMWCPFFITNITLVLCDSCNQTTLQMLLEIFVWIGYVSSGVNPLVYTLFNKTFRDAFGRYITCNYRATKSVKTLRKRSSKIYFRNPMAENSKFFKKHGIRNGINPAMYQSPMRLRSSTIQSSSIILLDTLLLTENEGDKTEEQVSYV
T6 sequence (P47898 whole entry): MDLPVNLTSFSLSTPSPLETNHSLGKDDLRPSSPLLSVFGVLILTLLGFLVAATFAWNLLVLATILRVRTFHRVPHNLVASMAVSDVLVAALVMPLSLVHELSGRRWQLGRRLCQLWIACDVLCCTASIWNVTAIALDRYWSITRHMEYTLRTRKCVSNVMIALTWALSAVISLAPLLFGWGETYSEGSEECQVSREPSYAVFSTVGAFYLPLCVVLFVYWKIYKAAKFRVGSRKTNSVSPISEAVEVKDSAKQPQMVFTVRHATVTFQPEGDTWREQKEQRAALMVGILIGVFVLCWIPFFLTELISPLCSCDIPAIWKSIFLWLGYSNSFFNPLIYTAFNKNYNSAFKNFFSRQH
T1 sequence (P23975 whole entry): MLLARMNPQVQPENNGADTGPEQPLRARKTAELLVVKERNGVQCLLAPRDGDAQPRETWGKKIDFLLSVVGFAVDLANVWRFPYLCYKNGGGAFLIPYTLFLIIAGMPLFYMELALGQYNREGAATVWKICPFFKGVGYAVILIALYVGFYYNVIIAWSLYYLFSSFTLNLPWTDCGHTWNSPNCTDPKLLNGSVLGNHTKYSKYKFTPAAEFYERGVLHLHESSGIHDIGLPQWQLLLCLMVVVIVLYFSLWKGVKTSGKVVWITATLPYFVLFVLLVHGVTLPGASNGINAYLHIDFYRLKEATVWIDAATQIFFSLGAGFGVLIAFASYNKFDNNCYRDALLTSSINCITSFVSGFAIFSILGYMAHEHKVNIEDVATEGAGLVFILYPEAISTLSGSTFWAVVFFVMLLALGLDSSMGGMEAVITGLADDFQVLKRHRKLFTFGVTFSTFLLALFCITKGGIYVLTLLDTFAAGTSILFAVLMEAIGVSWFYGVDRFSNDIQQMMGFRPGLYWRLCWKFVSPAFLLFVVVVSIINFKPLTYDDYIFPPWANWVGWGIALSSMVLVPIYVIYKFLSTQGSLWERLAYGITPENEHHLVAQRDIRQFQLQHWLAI
T5 sequence (P20309 whole entry): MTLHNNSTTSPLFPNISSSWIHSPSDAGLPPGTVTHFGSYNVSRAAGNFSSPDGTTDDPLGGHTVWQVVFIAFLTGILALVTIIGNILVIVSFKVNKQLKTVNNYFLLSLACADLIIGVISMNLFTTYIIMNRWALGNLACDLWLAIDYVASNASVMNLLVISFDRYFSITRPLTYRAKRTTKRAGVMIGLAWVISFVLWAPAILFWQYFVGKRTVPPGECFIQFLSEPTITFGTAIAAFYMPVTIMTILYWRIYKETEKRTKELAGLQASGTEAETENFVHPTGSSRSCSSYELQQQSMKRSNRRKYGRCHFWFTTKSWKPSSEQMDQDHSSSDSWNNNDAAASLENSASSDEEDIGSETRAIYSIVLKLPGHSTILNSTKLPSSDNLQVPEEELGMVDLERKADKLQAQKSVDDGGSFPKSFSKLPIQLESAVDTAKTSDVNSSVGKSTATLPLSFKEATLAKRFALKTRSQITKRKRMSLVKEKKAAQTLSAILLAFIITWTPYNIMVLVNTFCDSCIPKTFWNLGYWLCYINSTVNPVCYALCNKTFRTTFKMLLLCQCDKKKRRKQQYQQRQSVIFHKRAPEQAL
T4 sequence (P11229 whole entry): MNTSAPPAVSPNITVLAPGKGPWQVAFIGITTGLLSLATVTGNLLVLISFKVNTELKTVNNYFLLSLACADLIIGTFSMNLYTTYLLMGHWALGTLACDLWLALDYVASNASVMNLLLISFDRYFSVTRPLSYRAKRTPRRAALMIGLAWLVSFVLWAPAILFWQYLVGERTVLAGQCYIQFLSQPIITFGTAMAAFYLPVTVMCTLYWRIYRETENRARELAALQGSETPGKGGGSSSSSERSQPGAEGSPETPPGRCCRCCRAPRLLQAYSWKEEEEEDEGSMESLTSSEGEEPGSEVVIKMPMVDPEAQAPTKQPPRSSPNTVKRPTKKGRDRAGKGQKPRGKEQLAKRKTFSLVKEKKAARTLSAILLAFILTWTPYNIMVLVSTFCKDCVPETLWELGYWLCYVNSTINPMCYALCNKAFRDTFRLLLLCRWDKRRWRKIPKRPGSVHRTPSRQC

`Cc1ncsc1-c1ccc([C@H](C)NC(=O)[C@@H]2C[C@@H](O)CN2C(=O)[C@@H](NC(=O)CNC(=O)c2ccc(F)c(-c3ccc(N4C[C@@H](C)N(C)[C@@H](C)C4)c(NC(=O)c4c[nH]c(=O)cc4C(F)(F)F)c3)c2)C(C)(C)C)cc1` [MS67]: the inhibition at 1 µM in [1] was -8.91%; in [2], 14.3%; in assay [3], 9.31%; in assay [4], 43.6%; in assay [5], 23.9%; in assay [6], 36.6%. Besides, the inhibition at 1 µM was 2.36% in assay [7]; 16.9% in assay [8]; 11% in assay [9]; -23% in [10]; 24.4% in assay [11]. Further, the remaining activity at 10 µM was found to be 93% in assay [12] (setting [15]); 90.9% in assay [12] (setting [16]); 102% in assay [13]; 97.1% in assay [14] (setting [15]); 95.1% in assay [14] (setting [16]).
